From patent US8492425B2, “5-methyl-1-(naphthalen-2-yl)-1H-pyrazoles useful as sigma receptor inhibitors” (Laboratories Del Dr. Esteve, S.A., priority 2008, dated 2013)
pIC50, pKi: −log10 of the molar value. Read-outs that look alike come from different tables or passages of the source.

Key:
sigma-1 receptor = biological target: T1, sigma-1 receptor (Cavia porcellus, UniProt Q60492); assay: Sigma-1 receptor binding assay, [3H]-(+)-pentazocine displacement in guinea pig brain membranes; conditions: for pIC50: radioligand [3H]-(+)-pentazocine 3.0 nM, 150 min at 37° C., read-out: IC50 (inhibitory concentration); for pKi: read-out: Ki (binding affinity)
T1 construct: from tissue; host or cells: guinea pig brain membranes
T1 sequence (Q60492 whole entry): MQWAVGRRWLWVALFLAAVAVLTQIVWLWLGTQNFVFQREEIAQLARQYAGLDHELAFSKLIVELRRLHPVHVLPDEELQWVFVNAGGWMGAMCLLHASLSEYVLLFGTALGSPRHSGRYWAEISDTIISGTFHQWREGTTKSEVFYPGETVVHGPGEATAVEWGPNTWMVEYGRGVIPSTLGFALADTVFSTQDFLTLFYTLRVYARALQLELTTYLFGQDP

pIC50 (sigma-1 receptor; guinea pig brain membranes)	SMILES	further results
	Cc1cc(OCCN2CCOCC2)nn1-c1ccc2ccc(O)cc2c1 (hydrate or solvate) [Compound 4, 4-{2-[1-(7-hydroxynaphthalen-2-yl)-5-methyl-1H-pyrazol-3-yloxy]ethyl}morpholine chlorhydrate]	melting point: 103 to 107 °C
< 6.00	Cc1cc(OCCN2CCOCC2)nn1-c1ccc2c(c1)C=CC(O)C2O (stereo not shown) [Compound 1, 6-(5-methyl-3-(2-morpholinoethoxy)-1H-pyrazol-1-yl)-1,2-dihydronaphthalene-1,2-diol]	
< 6.00	Cc1cc(OCCN2CCOCC2)nn1-c1ccc2cc(O)ccc2c1 [Compound 2, 4-{2-[1-(6-hydroxynaphthalen-2-yl)-5-methyl-1H-pyrazol-3-yloxy]ethyl}morpholine chlorhydrate]	
	Cc1cc(OCCN2CCOCC2)nn1-c1ccc2c(O)cccc2c1 [Compound 3, 4-{2-[1-(5-hydroxynaphthalen-2-yl)-5-methyl-1H-pyrazol-3-yloxy]ethyl}morpholine]	pKi (sigma-1 receptor): 6.48
< 6.00	Cc1cc(OCCN2CCOCC2)nn1-c1ccc2ccc(O)cc2c1 [Compound 4, 4-{2-[1-(7-hydroxynaphthalen-2-yl)-5-methyl-1H-pyrazol-3-yloxy]ethyl}morpholine chlorhydrate]	
	Cc1cc(OCCNCCO)nn1-c1ccc2ccccc2c1 [Compound 5, 2-(2-(5-methyl-1-(naphthalen-2-yl)-1H-pyrazol-3-yloxy)ethylamino)ethanol chlorhydrate]	pKi (sigma-1 receptor; guinea pig brain membranes, [3H]-(+)-pentazocine 3.0 nM, calculated from IC50 by the Cheng-Prussof equation): 6.99
< 6.00	Cc1cc(OCC[N+]2([O-])CCOCC2)nn1-c1ccc2ccccc2c1 [Compound 6, 4-(2-(5-methyl-1-(naphthalen-2-yl)-1H-pyrazol-3-yloxy)ethyl)morpholine 4-oxide]	
